{
  "source": "patent US20120237941A1",
  "about": "“METHOD FOR SCREENING ACTIVE AGENTS THAT STIMULATE THE EXPRESSION OF ARNT2 TO IMPROVE THE SKIN'S BARRIER FUNCTION” (CHANEL PARFUMS BEAUTE, priority 2009, published 2012)",
  "tested_on": "ARNT2 mRNA",
  "experiment": "Stimulation of the expression of ARNT2 mRNA in normal human keratinocytes (real-time RT-PCR)",
  "type": "cell-based",
  "details": "0.001% active agent (w/w), 24 hours, fold vs untreated control (1.00), housekeeping gene RPLPO",
  "experimental": "Keratinocytes derived from neonatal foreskins (Invitrogen, CA, USA) were cultured in 6-well plates in keratinocyte culture medium with supplement (EpiLife, Invitrogen). After culturing for 24 hours at 37° C., the 70% confluent cells were washed with PBS buffer (Invitrogen, CA) and incubated with basic keratinocytes culture medium (EpiLife, Invitrogen) containing the active agent to be tested, for 24 hours, at increasing concentrations. The cytotoxicity of the active agent was evaluated in human cultured keratinocytes before testing the activity.\nKeratinocytes were treated with various concentrations of active agent in triplicates for 24 hours. The mRNA was isolated using the Qiagen RNeasy kit (Qiagen, CA) and quantified using the QuantIt kit (Invitrogen, CA).\nThe PCR primers were obtained from Applied Biosystems (Applied Biosystems, CA). The housekeeping gene used was RPLPO.\nTo quantify the expression of messenger RNA of ARNT2 in a treated sample relative to an untreated sample, real-time polymerase chain amplification (RT-PCR) was performed. […]\nThe relative quantification of the expression of the target gene was performed using the Pfaffl mathematical model (Pfaffl, M W, Nucleic Acids Res. 29(9), p. E45, 2001). […]\nThe effect of this botanical extract on the expression of the ARNT2 mRNA was evaluated on cultured keratinocytes. […]",
  "data": [
    {"compound": "CC(=O)Oc1cc(C=Cc2ccc(OC(=O)CCCCC3CCSS3)cc2)cc(OC(C)=O)c1", "note": "(stereo not shown) [Active agent tested, resveratrol 3,5-diacetate-4′-lipoate]", "values": [
      {"measurement": "Stimulation of ARNT2 mRNA", "result": 1.81}
    ]}
  ]
}
